Test results from patent publication US6291247A, “Methods of screening for factors that disrupt neurotrophin conformation and reduce neurotrophin biological activity” (priority 1996, dated 2001).
Bridges are numbered along the chain shown (N, C = ends).

Key:
p75^NTR = assay: 125I-NT-3 binding to p75NTR; details: 100 μM Zn2+, n = 3; 120 min
Description: Full length (1-118) mouse NGF purified by HPLC from 2.5S NGF (purity greater than 95%) was obtained from Cedarlane Laboratories (Toronto, Ont). The iodination of NGF was performed as previously described (Sutter, A, Riopelle, R. J., Harris-Warrick, R. M. & Shooter, E. M. Nerve growth factor receptors. J. Biol. Chem. 254, 5972-5982 (1979)). […] PC12 cells were grown in RPMI with 10% heat inactivated donor horse serum and 5% fetal calf serum. Each data point was set up in a single tube containing ^125 I-NGF (at the required concentration), 400,000 cells (for a final call concentration of 10^6 /ml), BDNF (at 40 nM for TrkA binding) and NGF (at 10 nM for non-specific binding) as required. The tubes were incubated for 2 hr at 4° C. and 100 μl aliquots (providing triplicate data points for each sample) were transferred to 400 μl microcentrifuges containing 200 μl of 10% glycerol in HKR. Tubes were centrifuged for 2 minutes at 5,000 rpm, the tip containing the cell pellet cut off and radioactivity bound to the cells was determined.
(§1) Human recombinant BDNF and human recombinant NT-3 were obtained from Alomone Laboratories (Israel). The iodination, crosslinking, and binding experiments using BDNF and NT-3 were performed using the methods described above for NGF. Neurite outgrowth assays were performed as described in the presence of 4.0 nM NT-3 or 8.0 nM BDNF.

DRG neurons = assay: NT-3-dependent neurite outgrowth of DRG neurons; format: cell-based, chick; details: n = 8
Description: Dissosiated cells enriched for sensory neurons were prepared from ED8 chick DRG as described (Dostaler, S. M. et al. Characterization of a distinctive motif of the low molecular weight neurotrophin receptor that modulates NGF-mediated neurite growth. Eur. J. Neurosci. 8, 870-879 (1996)). Neurons were seeded at a density of 800-1000 cells/well in Ham's F-12 containing 5% FCS and NGF at 10 pM into wells of Terasaki plates treated with polyysine. The cells were incubated with the indicated additives at 37° C. in a 5% CO2 atmosphere. The cells on the entire lower horizontal surface of the well were scored for neurite growth at 18-20 hours using an inverted microscope fitted with phase contrast optics. A neurite was scored if its caliber from the origin to terminal was constant and its length was equal to or greater than 1.5 cell body diameters. Neurite growth was corrected for background (no NGF).
as §1

TrkA = molecular target: T1, TrkA; assay: Affinity cross-linking of 125I-NGF to TrkA on PC12 cells; format: binding, rat; details: 200 μM; result in words
T1 construct: Receptor cross-linking studies were performed on PC12 rat pheochromocytoma cells; endogenous in cells; host or cells: PC12 rat pheochromocytoma cells (ATCC CRL 1721)
Description: The ability of the peptides under study to interfere with binding of NGF to NGF receptors was evaluated by analysis of inhibition of the chemical cross-linking of ^251 I-NGF to the common neurotrophin receptor p75 (Chao, J. Neurobiol. 25:1373-1385 (1994)) and the specific NGF receptor TrkA (Barbacid, J. Neurobiol. 25: 1386-1403 (1994)). Immunoprecipitation and polyacrylamide gel electrphoresis of cross linked receptors allowed identification of both receptors, as shown in FIG. 7A. […] At concentrations of 200 μM, neither R11(l) nor R11(m) were able to inhibit greater than 50% of the observed ^125 I-labelling.
The ability of the peptides derived from the 68-58/108-110 region of NGF to antagonize NGF interaction with the p75 and TrkA receptors was determined The peptides tested were bicyclic (BC) 68-58/108-110, cyclic (C) 68-58/108-110, and linear (L) 68-58/108-110, each of which are illustrated in FIGS. 2 and 5D
Receptor cross-linking studies were performed on PC12 rat pheochromocytoma cells (ATCC CRL 1721; Greene et al., Proc. Natl. Acad. Sci. USA 73: 2424-2432 (1976)) which were maintained in RPMI1640 (Gibco) supplemented with 10% fetal calf serum (Gibco). […]

BDNF = details: Rashid et al. 1995; cited from earlier work

T1 sequence (P01139 122-239): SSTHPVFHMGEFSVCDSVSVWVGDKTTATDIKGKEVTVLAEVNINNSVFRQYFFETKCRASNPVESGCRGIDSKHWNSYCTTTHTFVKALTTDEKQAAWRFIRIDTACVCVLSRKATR

Compound: [Zn+2] [Zn^2+]
- % Maximum p75NTR binding, 125I-NT-3 (p75^NTR): 13.3 ± 9.5 % Maximum binding
- Neurite Outgrowth, NT-3 (4.0 nM) (DRG neurons; 30 μM Zn2+): 79.9 ± 13.8 % Maximum process bearing neur
- Neurite Outgrowth, NT-3 (4.0 nM) (DRG neurons; 50 μM Zn2+): 18.4 ± 9.6 % Maximum process bearing neur

Compound: NH2 -Cys-Gly-Ser-Glu-Val-Pro-Asn-Ser-Ala-Arg-Cys-Cys-Val-Cys-OH (H-CGSEVPNSARCCVC-OH; disulfide 1-14, 11-12) [R11, bicyclic peptide of NGF residues 68-58/108-110, two disulfide bonds]
- Covalent attachment of 125I-NGF to receptor (TrkA) (TrkA): effectively prevented the covalent attachment
- Antagonism of BDNF in vitro (BDNF): effective antagonist
